3 compounds from paper PMC8115619, “Generation of a chemical genetic model for JAK3” (Scientific Reports, 2021) can be followed below.

Experiment [1] concerns GM-CSF induced STAT5 phosphorylation in BMDMs. As to the kind of experiment: GM-CSF induced STAT5 phosphorylation in macrophages. Particulars: wild type BMDMs, 10 μM inhibitor 2 h, 10 ng/ml GM-CSF. Type of experiment: cell-based, mouse. As for the experimental part: (A) BMDMs were isolated from wild type mice. Cells were incubated with the indicated inhibitors in μM for 2 h before stimulation with 10 ng/ml IL-4 for 30 min. The levels of phosphorylated STAT6 were then determined by immunoblotting. (B) As (A) except cells were stimulated 10 ng/ml GM-CSF and the levels of phosphorylated STAT5 determined. (C) As (A) except cells were stimulated 10 ng/ml IL-10 and the levels of phosphorylated STAT3 determined. (D) As (A) except cells were stimulated 10 ng/ml IFNβ and the levels of phosphorylated STAT1 determined. For A–D, levels of ERK1/2 were determined as a loading control.
Bone marrow derived macrophages (BMDMs) were cultured as described. Briefly, bone marrow was flushed in PBS from the femurs and tibias of mice. […]
Cells were lysed directly into SDS sample buffer and aliquots run on 10% polyacrylamide gels using standard methods. Proteins were transferred onto nitrocellulose membranes, and specific proteins were detected by immunoblotting. […] Bands were detected using Clarity ECL reagents from BioRad and imaged on a Licor Odyssey Fc system. Quantification was carried out using Licor Image Studio software. After correction for the ERK1/2 levels to account for loading differences, percentage inhibition was calculated relative to the IL-4 stimulated condition. IC50 values were calculated using the same methods as for the in vitro IC50 values.

In the next experiment the target is TTBK2 (Homo sapiens, UniProt Q6IQ55). As to the kind of experiment: Selectivity screen TTBK2. The class given is biochemical. Particulars: 1 µM inhibitor, mean. As for the experimental part:
(§1) For the in vitro kinase assay, JAK3 (5–20 mU diluted in 50 mM Tris pH 7.5, 0.1 mM EGTA, 0.05% β-mercaptoethanol, 1 mg/ml BSA) was assayed against PDKtide ([…]) in a final volume of 25.5 µl containing 50 mM Tris pH 7.5, 0.1 mM EGTA, 0.05% β-mercaptoethanol, 100 µM substrate peptide, 10 mM magnesium acetate and 0.02 mM [33P-γ-ATP] (50–1000 cpm/pmole) and incubated for 30 min at room temperature. Assays were started by the addition of the ATP and stopped by addition of 5 µl of 0.5 M (3%) orthophosphoric acid and then harvested onto P81 Unifilter plates with a wash buffer of 50 mM orthophosphoric acid. To determine the Km for ATP, assays were run using 1, 5, 10, 20, 50, 100, 200, 400, 500 μM ATP and Km derived by non-linear regression fitting to the Michaelis–Menten equation v = Vmax[S]/(Km + [S]). IC50 values for inhibitors via non-linear regression using a parameter model: Y = Bottom + (Top–Bottom)/(1 + (IC50/X)^HillSlope). Non-linear regression was carried out in Prism (version 8). In vitro selectivity screen was carried out as described previously.

The target in the next experiment is EIF2AK3 (Homo sapiens, UniProt Q9NZJ5). As to the kind of experiment: Selectivity screen EIF2AK3. The conditions noted are these: 1 µM inhibitor, mean. Type of experiment: biochemical. The method, then: as §1
A further experiment concerns the target PDGFRA (Homo sapiens, UniProt P16234). As to the kind of experiment: Selectivity screen PDGFRA. Particulars: 1 µM inhibitor, mean. Type of experiment: biochemical. As for the experimental part: as §1
In the next experiment the target is EPH-B1 (Homo sapiens, UniProt P54762). The experiment can be described thus: Selectivity screen EPH-B1. Type of experiment: biochemical. The conditions noted are these: 1 µM inhibitor, mean. As for the experimental part: as §1
The next experiment addresses CDK9-Cyclin T1 (Homo sapiens, UniProt P50750). As to the kind of experiment: Selectivity screen CDK9-Cyclin T1. The conditions noted are these: 1 µM inhibitor, mean. The class given is biochemical. The method, then:
as §1

Another experiment deals with ROCK 2 (Homo sapiens, UniProt O75116). As to the kind of experiment: Selectivity screen ROCK 2. The class given is biochemical. Particulars: 1 µM inhibitor, mean. The method, then: as §1
A further experiment addresses MNK1 (Homo sapiens, UniProt Q9BUB5). The experiment can be described thus: Selectivity screen MNK1. Type of experiment: biochemical. Particulars: 1 µM inhibitor, mean. The method, then:
as §1

For a further experiment, the target named is MARK4 (Homo sapiens, UniProt Q96L34). The experiment can be described thus: Selectivity screen MARK4. Type of experiment: biochemical. The conditions noted are these: 1 µM inhibitor, mean. As for the experimental part: as §1
MARK4, sequence (Q96L34 whole entry): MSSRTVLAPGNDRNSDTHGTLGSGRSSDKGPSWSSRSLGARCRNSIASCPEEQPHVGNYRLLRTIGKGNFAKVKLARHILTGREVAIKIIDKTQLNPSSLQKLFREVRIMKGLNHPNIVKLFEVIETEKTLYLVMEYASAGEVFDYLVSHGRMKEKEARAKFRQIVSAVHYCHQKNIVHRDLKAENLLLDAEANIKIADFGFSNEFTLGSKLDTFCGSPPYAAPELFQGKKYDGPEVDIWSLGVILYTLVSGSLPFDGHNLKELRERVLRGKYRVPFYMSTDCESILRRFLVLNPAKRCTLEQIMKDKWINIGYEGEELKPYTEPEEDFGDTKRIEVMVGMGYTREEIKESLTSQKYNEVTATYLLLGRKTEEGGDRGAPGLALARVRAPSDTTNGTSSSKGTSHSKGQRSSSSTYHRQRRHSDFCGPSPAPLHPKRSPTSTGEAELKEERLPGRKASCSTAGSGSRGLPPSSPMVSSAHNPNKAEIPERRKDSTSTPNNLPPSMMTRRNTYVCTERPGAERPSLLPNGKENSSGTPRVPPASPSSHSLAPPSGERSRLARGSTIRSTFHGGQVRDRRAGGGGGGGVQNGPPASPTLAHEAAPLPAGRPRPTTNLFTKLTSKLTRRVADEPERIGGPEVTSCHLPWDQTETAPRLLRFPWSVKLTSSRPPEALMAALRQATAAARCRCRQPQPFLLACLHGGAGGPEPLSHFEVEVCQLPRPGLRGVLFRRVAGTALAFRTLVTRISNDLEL
The next experiment deals with ERK8 (Homo sapiens, UniProt Q8TD08). The experiment can be described thus: Selectivity screen ERK8. Particulars: 1 µM inhibitor, mean. Type of experiment: biochemical. The method, then:
as §1

Another experiment deals with HIPK1 (Homo sapiens, UniProt Q86Z02). The experiment can be described thus: Selectivity screen HIPK1. The class given is biochemical. Particulars: 1 µM inhibitor, mean. As for the experimental part:
as §1

The next experiment has as its target IRAK4 (Homo sapiens, UniProt Q9NWZ3). The experiment can be described thus: Selectivity screen IRAK4. The class given is biochemical. Particulars: 1 µM inhibitor, mean. As for the experimental part: as §1
The target in another experiment is PKCa (Homo sapiens, UniProt P17252). The experiment can be described thus: Selectivity screen PKCa. Type of experiment: biochemical. The conditions noted are these: 1 µM inhibitor, mean. The method, then:
as §1

Another experiment concerns the target TAK1 (Homo sapiens, UniProt O43318). As to the kind of experiment: Selectivity screen TAK1. The conditions noted are these: 1 µM inhibitor, mean. The class given is biochemical. The method, then: as §1
Another experiment has as its target EPH-B3 (Homo sapiens, UniProt P54753). The experiment can be described thus: Selectivity screen EPH-B3. The conditions noted are these: 1 µM inhibitor, mean. The class given is biochemical. As for the experimental part:
as §1

The target of the next experiment is Lck (Homo sapiens, UniProt P06239). The experiment can be described thus: Selectivity screen Lck. Type of experiment: biochemical. Particulars: 1 µM inhibitor, mean. As for the experimental part: as §1
Lck, sequence (P06239 whole entry): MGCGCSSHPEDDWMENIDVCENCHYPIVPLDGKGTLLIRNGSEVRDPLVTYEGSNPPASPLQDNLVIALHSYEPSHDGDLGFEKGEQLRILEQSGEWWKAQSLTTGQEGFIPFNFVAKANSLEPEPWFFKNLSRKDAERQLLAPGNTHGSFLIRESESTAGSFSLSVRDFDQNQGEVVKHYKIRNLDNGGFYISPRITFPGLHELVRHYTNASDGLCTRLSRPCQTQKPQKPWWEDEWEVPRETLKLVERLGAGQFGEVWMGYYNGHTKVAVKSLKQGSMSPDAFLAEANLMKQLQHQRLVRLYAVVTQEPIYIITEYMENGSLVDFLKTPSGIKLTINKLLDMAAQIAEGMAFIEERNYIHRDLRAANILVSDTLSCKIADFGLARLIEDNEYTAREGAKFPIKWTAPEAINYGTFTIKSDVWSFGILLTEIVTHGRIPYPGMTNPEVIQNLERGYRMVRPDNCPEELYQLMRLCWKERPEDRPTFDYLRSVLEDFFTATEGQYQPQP
For a further experiment, the target named is VEG-FR (Homo sapiens, UniProt P17948). The experiment can be described thus: Selectivity screen VEG-FR. Particulars: 1 µM inhibitor, mean. The class given is biochemical. The method, then:
as §1

Another experiment addresses Aurora A (Homo sapiens, UniProt O14965). The experiment can be described thus: Selectivity screen Aurora A. Particulars: 1 µM inhibitor, mean. The class given is biochemical.
Another experiment deals with AMPK. As to the kind of experiment: Selectivity screen AMPK. Type of experiment: biochemical. The conditions noted are these: 1 µM inhibitor, mean.
Another experiment deals with ABL (Homo sapiens, UniProt P00519). As to the kind of experiment: Selectivity screen ABL. The class given is biochemical. The conditions noted are these: 1 µM inhibitor, mean. The method, then: as §1
Another experiment concerns the target MST4 (Homo sapiens, UniProt Q9P289). As to the kind of experiment: Selectivity screen MST4. Type of experiment: biochemical. Particulars: 1 µM inhibitor, mean. As for the experimental part: as §1
The next experiment concerns the target STK33 (Homo sapiens, UniProt Q9BYT3). The experiment can be described thus: Selectivity screen STK33. Type of experiment: biochemical. The conditions noted are these: 1 µM inhibitor, mean. The method, then: as §1
In another experiment the target is NEK6 (Homo sapiens, UniProt Q9HC98). The experiment can be described thus: Selectivity screen NEK6. Type of experiment: biochemical. The conditions noted are these: 1 µM inhibitor, mean. The method, then:
as §1

“Also recorded” adds a separate entry of the source.

TTBK2, sequence (Q6IQ55 whole entry): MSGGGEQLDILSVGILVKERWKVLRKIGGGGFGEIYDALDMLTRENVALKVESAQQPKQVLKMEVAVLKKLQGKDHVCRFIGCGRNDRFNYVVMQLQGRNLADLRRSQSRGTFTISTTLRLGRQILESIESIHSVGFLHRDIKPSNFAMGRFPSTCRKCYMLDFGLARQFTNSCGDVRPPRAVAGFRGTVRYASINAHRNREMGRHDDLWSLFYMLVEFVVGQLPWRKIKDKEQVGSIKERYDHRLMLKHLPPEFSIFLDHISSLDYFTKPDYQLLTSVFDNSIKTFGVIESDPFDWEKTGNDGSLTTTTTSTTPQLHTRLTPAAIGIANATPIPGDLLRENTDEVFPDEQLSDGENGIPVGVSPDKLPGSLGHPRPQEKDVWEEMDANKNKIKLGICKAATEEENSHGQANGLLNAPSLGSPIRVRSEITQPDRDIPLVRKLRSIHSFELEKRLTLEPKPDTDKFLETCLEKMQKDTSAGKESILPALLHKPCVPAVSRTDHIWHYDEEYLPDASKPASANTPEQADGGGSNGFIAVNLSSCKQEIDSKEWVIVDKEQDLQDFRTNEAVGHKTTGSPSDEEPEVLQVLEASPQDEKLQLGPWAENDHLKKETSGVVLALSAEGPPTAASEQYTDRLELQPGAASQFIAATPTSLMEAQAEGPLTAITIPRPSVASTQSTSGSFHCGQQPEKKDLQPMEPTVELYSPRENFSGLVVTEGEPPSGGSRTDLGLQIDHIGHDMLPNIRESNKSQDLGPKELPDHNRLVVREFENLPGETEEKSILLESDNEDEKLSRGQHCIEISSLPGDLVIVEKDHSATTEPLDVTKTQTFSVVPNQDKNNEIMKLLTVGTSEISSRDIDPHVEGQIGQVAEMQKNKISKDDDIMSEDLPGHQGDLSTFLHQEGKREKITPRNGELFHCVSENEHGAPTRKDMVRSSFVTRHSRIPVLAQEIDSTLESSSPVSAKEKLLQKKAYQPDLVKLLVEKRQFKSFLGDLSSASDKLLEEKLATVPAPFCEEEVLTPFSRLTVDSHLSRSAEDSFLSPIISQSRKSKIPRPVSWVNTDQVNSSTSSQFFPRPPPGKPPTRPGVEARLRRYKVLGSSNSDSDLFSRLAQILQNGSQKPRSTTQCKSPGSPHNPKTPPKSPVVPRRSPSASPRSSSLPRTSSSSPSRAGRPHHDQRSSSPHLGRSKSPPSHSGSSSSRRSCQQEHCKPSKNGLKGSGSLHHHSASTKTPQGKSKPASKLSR
IRAK4, sequence (Q9NWZ3 whole entry): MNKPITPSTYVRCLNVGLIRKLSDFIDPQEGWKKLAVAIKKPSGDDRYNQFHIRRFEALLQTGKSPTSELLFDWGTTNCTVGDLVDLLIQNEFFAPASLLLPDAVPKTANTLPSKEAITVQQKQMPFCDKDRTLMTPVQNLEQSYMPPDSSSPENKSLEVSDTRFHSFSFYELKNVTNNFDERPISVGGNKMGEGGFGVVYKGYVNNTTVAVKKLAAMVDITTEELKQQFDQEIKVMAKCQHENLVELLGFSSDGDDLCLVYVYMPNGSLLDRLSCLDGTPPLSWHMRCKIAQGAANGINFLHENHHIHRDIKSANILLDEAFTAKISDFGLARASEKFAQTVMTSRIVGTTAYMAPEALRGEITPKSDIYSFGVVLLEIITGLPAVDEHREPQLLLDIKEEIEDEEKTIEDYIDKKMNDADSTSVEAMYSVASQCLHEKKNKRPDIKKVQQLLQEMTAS
MST4, sequence (Q9P289 whole entry): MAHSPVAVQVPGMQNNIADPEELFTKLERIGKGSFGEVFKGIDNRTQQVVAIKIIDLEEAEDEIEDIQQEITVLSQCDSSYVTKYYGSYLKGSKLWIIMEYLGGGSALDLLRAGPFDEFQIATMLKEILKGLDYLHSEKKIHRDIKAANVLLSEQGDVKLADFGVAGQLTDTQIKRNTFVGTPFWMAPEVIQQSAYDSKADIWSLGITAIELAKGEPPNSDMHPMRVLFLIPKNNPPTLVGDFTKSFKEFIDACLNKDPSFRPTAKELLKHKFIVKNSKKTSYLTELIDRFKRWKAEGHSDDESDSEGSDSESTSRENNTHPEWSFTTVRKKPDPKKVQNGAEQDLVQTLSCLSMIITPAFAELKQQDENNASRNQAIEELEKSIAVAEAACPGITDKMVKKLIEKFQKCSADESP
NEK6, sequence (Q9HC98 whole entry): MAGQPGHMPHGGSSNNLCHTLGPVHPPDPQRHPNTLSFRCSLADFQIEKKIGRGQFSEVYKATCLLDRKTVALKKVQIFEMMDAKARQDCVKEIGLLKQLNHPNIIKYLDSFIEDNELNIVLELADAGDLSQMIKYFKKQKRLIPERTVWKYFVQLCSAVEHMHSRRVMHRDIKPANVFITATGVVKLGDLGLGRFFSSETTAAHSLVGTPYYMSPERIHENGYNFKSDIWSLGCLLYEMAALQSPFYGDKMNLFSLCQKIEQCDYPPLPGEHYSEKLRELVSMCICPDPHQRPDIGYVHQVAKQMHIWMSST
CDK9-Cyclin T1, sequence (P50750 whole entry): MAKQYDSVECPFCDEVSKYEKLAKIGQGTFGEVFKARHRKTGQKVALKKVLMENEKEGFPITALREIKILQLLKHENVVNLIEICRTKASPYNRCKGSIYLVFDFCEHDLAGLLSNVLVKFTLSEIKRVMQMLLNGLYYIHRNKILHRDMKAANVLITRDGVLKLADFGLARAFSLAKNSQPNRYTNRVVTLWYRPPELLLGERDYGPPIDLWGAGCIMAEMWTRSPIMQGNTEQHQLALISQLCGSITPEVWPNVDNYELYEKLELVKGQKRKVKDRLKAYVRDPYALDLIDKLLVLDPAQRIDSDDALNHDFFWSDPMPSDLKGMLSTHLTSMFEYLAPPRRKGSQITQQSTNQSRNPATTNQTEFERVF
CDK9-Cyclin T1, sequence (O60563 whole entry partner): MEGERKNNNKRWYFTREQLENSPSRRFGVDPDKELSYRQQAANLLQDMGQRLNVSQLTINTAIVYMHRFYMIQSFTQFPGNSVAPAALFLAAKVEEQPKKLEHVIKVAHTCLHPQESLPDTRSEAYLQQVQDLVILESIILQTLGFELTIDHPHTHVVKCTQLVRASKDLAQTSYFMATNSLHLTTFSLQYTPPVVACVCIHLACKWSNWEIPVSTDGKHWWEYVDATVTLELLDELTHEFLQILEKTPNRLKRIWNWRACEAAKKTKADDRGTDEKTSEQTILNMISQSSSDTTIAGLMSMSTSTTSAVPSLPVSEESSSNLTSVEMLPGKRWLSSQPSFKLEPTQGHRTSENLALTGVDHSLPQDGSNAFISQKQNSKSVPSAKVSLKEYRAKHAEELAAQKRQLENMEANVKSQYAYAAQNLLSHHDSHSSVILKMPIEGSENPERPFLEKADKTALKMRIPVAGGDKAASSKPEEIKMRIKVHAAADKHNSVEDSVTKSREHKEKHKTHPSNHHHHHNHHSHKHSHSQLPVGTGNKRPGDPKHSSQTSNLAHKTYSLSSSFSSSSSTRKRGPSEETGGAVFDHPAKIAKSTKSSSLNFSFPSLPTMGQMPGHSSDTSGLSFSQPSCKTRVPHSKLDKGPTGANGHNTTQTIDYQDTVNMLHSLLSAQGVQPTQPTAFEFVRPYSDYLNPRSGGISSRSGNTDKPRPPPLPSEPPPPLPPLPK

On to `C=CC(=O)N1C[C@H](Nc2ncnc3[nH]ccc23)CC[C@@H]1C` [PF-06651600, 1-((2S,5R)-5-((7H-Pyrrolo[2,3-d]pyrimidin-4-yl)amino)-2-methylpiperidin-1-yl)prop-2-en-1-one, reference compound], for which the “inhibition of GM-CSF induced STAT5 phosphorylation” value in experiment [1] was “Neither TL8-52 or PF-06651600 inhibited; also recorded: did not block”.

`C=CC(=O)Nc1cccc(CNc2nc(Nc3ccc(N4CCN(C)CC4)cc3OC)ncc2Cl)c1` [TL6-144]: at TTBK2, the “activity remaining in the presence of the inhibitor: TTBK2” value is 94. Moreover, the “activity remaining in the presence of the inhibitor: EIF2AK3” value at EIF2AK3 was determined as 98. In addition, on PDGFRA, the “activity remaining in the presence of the inhibitor: PDGFRA” value is reported as 67. Also, the “activity remaining in the presence of the inhibitor: EPH-B1” value at EPH-B1 came to 85. For the same compound, on CDK9-Cyclin T1, the “activity remaining in the presence of the inhibitor: CDK9-Cyclin T1” value worked out at 95. For the same compound, the “activity remaining in the presence of the inhibitor: ROCK 2” value on ROCK 2 turned out to be 83. For the same compound, the “activity remaining in the presence of the inhibitor: MNK1” value on MNK1 was determined as 105. Further, the “activity remaining in the presence of the inhibitor: MARK4” value on MARK4 was 76. Moreover, the “activity remaining in the presence of the inhibitor: ERK8” value at ERK8 is listed as 90. Moreover, on HIPK1, the “activity remaining in the presence of the inhibitor: HIPK1” value is reported as 79. In addition, at IRAK4, the “activity remaining in the presence of the inhibitor: IRAK4” value came to 85. Besides, at PKCa, the “activity remaining in the presence of the inhibitor: PKCa” value was determined as 81. For the same compound, the “activity remaining in the presence of the inhibitor: TAK1” value on TAK1 is reported as 77. For the same compound, the “activity remaining in the presence of the inhibitor: EPH-B3” value on EPH-B3 came to 77. Moreover, the “activity remaining in the presence of the inhibitor: Lck” value at Lck stood at 77. The “activity remaining in the presence of the inhibitor: VEG-FR” value at VEG-FR came out at 39. Besides, the “activity remaining in the presence of the inhibitor: Aurora A” value at Aurora A amounted to 94. In addition, in the experiment on AMPK, the “activity remaining in the presence of the inhibitor: AMPK” value amounted to 91. At ABL, the “activity remaining in the presence of the inhibitor: ABL” value stood at 87. Besides, the “activity remaining in the presence of the inhibitor: MST4” value on MST4 was 107. In addition, at STK33, the “activity remaining in the presence of the inhibitor: STK33” value came to 81. In addition, the “activity remaining in the presence of the inhibitor: NEK6” value on NEK6 is on record as 97.

Turning to `C=CC(=O)Nc1cccc(CNc2nc(Nc3ccc(N4CCOCC4)cc3)ncc2Cl)c1` [TL8-52], at TTBK2, the “activity remaining in the presence of the inhibitor: TTBK2” value was found to be 106. Besides, the “activity remaining in the presence of the inhibitor: EIF2AK3” value at EIF2AK3 worked out at 90. For the same compound, the “activity remaining in the presence of the inhibitor: PDGFRA” value on PDGFRA is on record as 35. Moreover, in experiment [1], the “inhibition of GM-CSF induced STAT5 phosphorylation” value is “Neither TL8-52 or PF-06651600 inhibited”. The “activity remaining in the presence of the inhibitor: EPH-B1” value on EPH-B1 is on record as 75. For the same compound, the “activity remaining in the presence of the inhibitor: CDK9-Cyclin T1” value on CDK9-Cyclin T1 was found to be 80. Also, the “activity remaining in the presence of the inhibitor: ROCK 2” value at ROCK 2 is 93. For the same compound, the “activity remaining in the presence of the inhibitor: MNK1” value on MNK1 is 112. The “activity remaining in the presence of the inhibitor: MARK4” value at MARK4 was 28. Further, at ERK8, the “activity remaining in the presence of the inhibitor: ERK8” value is recorded as 65. Also, on HIPK1, the “activity remaining in the presence of the inhibitor: HIPK1” value stood at 96. Also, the “activity remaining in the presence of the inhibitor: IRAK4” value at IRAK4 worked out at 77. On PKCa, the “activity remaining in the presence of the inhibitor: PKCa” value came out at 91. Moreover, the “activity remaining in the presence of the inhibitor: TAK1” value at TAK1 is recorded as 39. Further, at EPH-B3, the “activity remaining in the presence of the inhibitor: EPH-B3” value turned out to be 73. Moreover, on Lck, the “activity remaining in the presence of the inhibitor: Lck” value is given as 73. Besides, the “activity remaining in the presence of the inhibitor: VEG-FR” value at VEG-FR was 6. Also, the “activity remaining in the presence of the inhibitor: Aurora A” value at Aurora A stood at 13. The “activity remaining in the presence of the inhibitor: AMPK” value in the experiment with AMPK is recorded as 80. For the same compound, on ABL, the “activity remaining in the presence of the inhibitor: ABL” value stood at 89. At MST4, the “activity remaining in the presence of the inhibitor: MST4” value was 96. The “activity remaining in the presence of the inhibitor: STK33” value on STK33 was 94. In addition, the “activity remaining in the presence of the inhibitor: NEK6” value on NEK6 came to 103.
